Measurements: patent US9695171B2, “3,4-disubstituted-1 H-pyrrolo[2,3-b]pyridines and 4,5-disubstituted-7H-pyrrolo[2,3-c]pyridazines as LRRK2 inhibitors” (Pfizer Inc., priority 2013, dated 2017)
One block for each molecule: values may come before it.

Target: T1, GST-tagged truncated LRRK2 (Homo sapiens, UniProt Q5S007)
T1 construct: GST-tagged truncated LRRK2 from Invitrogen (Cat # PV4874); GST; purchased Invitrogen PV4874
Assay: LRRK2 kinase assay (Lantha Screen)
Assay type: biochemical
Settings: 1 mM ATP (head); a = geometric mean of >=4 determinations, b = single determination; read-out: LRRK2 LANTHA EC50 at 1 mM ATP; Geometric mean of 2-3 determinations unless otherwise indicated
Protocol: LRRK2 kinase activity was measured using Lantha Screen technology from Invitrogen. GST-tagged truncated LRRK2 from Invitrogen (Cat # PV4874) was incubated with a fluorescein-labeled peptide substrate based upon ezrin/radixin/moesin (ERM), also known as LRRKtide (Invitrogen cat # PR8976A), in the presence of a dose response of compound. Upon completion, the assay was stopped and detected with a terbium labeled anti-phospho-ERM antibody (Invitrogen, cat # PR8975A). […] The compound dose response was prepared by diluting compound to a top concentration of 3.16 mM in 100% DMSO and serial diluted by half-log in DMSO 11 times. Aliquots (3.5 μL) of the 100% DMSO dose response were mixed with 46.5 μL water then 1 μL of this mixture was added to the 3 μL substrate mix in the 384-well plate. The kinase reaction was started with 3 μL of a working solution of LRRK2 enzyme at a concentration of 4 μg/mL. […] The reaction was allowed to progress at room temperature for two hours and then stopped with the addition of 7 μL of detection buffer (20 mM Tris pH 7.6, 0.01% NP-40, 0.02% NaN3, 6 mM EDTA with 2 nM terbium labeled anti-phospho-ERM). After an incubation of 1 hour at room temperature, the plate was read on an Envision with an excitation wavelength of 340 nm and a reading emission at both 520 nm and 495 nm. The ratio of the 520 nm and 495 nm emission was used to analyze the data.

T1 sequence (Q5S007 970-2527 limits assumed): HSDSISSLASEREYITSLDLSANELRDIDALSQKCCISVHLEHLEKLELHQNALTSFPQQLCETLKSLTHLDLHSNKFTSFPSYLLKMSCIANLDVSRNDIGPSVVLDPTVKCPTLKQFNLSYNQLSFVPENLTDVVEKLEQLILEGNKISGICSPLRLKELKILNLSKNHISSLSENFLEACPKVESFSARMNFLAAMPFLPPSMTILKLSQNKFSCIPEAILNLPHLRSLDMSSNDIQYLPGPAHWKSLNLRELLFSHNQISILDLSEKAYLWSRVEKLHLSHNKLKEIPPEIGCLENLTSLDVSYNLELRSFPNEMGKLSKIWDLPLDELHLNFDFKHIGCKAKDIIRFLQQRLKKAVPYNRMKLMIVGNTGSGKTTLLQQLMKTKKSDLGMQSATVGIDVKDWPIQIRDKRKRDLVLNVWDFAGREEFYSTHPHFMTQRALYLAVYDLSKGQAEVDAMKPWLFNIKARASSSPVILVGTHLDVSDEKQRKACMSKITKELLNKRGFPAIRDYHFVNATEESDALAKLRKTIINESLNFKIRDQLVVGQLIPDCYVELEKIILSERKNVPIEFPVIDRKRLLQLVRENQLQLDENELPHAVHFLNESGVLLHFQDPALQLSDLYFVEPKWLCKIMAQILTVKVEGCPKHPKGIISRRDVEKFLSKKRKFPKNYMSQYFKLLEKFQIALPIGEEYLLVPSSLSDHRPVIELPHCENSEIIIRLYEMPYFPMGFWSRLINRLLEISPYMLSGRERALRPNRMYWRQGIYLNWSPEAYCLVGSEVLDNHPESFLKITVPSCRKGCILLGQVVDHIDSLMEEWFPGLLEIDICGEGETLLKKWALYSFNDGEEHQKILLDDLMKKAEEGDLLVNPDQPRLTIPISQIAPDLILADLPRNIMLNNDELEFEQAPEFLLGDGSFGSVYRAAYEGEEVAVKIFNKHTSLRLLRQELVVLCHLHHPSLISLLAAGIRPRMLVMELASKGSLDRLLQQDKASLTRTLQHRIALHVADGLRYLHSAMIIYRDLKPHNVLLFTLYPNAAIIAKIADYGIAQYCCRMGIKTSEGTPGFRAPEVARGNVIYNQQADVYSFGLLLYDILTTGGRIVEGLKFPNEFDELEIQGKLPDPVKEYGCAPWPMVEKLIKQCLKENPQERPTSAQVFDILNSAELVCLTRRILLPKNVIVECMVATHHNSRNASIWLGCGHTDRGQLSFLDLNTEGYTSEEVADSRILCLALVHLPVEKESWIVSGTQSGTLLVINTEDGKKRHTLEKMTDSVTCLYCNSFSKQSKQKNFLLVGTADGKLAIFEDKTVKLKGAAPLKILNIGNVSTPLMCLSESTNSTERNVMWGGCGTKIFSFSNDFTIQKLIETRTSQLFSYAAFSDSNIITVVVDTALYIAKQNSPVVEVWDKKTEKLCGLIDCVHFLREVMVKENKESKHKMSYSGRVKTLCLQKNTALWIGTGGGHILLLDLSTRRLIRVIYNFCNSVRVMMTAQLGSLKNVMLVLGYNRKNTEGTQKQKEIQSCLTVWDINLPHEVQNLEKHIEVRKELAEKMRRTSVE

Structure (SMILES): COc1cncc(-c2c[nH]c3nccc(N4CCOCC4)c23)c1 [Example 42, 3-(5-methoxypyridin-3-yl)-4-(morpholin-4-yl)-1H-pyrrolo[2,3-b]pyridine]
EC50: 240 nM

Structure (SMILES): Cc1[nH]c2nccc(N3CCOCC3)c2c1-c1cccc(C#N)n1 [Example 43, 6-[2-methyl-4-(morpholin-4-yl)-1H-pyrrolo[2,3-b]pyridin-3-yl]pyridine-2-carbonitrile]
EC50: 31.9 nM

Structure (SMILES): Cn1cc(-c2c[nH]c3ncc(C#N)c(N4CCOCC4)c23)cn1 [Example 44, 3-(1-methyl-1H-pyrazol-4-yl)-4-(morpholin-4-yl)-1H-pyrrolo[2,3-b]pyridine-5-carbonitrile]
EC50: 143 nM

Structure (SMILES): N#Cc1cccc(-c2c[nH]c3ncc(C#N)c(N4CCOCC4)c23)c1F [Example 45, 3-(3-cyano-2-fluorophenyl)-4-(morpholin-4-yl)-1H-pyrrolo[2,3-b]pyridine-5-carbonitrile]
EC50: 20.4 nM

Structure (SMILES): Cc1cc(F)cc(-c2c[nH]c3ncc(C#N)c(N4CCOCC4)c23)c1 [Example 46, 3-(3-fluoro-5-methylphenyl)-4-(morpholin-4-yl)-1H-pyrrolo[2,3-b]pyridine-5-carbonitrile]
EC50: 29.6 nM

Structure (SMILES): N#Cc1ccc(F)c(-c2c[nH]c3nccc(N4CCOCC4)c23)c1 [Example 47, 4-fluoro-3-[4-(morpholin-4-yl)-1H-pyrrolo[2,3-b]pyridin-3-yl]benzonitrile]
EC50: 144 nM

Structure (SMILES): N#Cc1cc(CO)cc(-c2c[nH]c3nccc(N4CCOCC4)c23)c1 [Example 49, 3-(hydroxymethyl)-5-[4-(morpholin-4-yl)-1H-pyrrolo[2,3-b]pyridin-3-yl]benzonitrile]
EC50: 50.8 nM

Structure (SMILES): Fc1ccc(-c2c[nH]c3nccc(N4CCOCC4)c23)cc1 [Example 50, 3-(4-fluorophenyl)-4-(morpholin-4-yl)-1H-pyrrolo[2,3-b]pyridine]
EC50: 191 nM

Structure (SMILES): Cc1cncc(-c2c(C)[nH]c3nccc(N4CCOCC4)c23)c1 [Example 51, 2-methyl-3-(5-methylpyridin-3-yl)-4-(morpholin-4-yl)-1H-pyrrolo[2,3-b]pyridine]
EC50: 191 nM

Structure (SMILES): Cc1[nH]c2nccc(N3CCOCC3)c2c1-c1cccc(Cl)c1 [Example 52, 3-(3-chlorophenyl)-2-methyl-4-(morpholin-4-yl)-1H-pyrrolo[2,3-b]pyridine]
EC50: 158 nM

Structure (SMILES): Cc1[nH]c2nccc(N3CCOCC3)c2c1-c1ccccc1 [Example 53, 2-methyl-4-(morpholin-4-yl)-3-phenyl-1H-pyrrolo[2,3-b]pyridine]
EC50: 201 nM

Structure (SMILES): Cc1[nH]c2nccc(N3CCOCC3)c2c1-c1ccccc1F [Example 54, 3-(2-fluorophenyl)-2-methyl-4-(morpholin-4-yl)-1H-pyrrolo[2,3-b]pyridine]
EC50: 91.6 nM

Structure (SMILES): Cc1[nH]c2nccc(N3CCOCC3)c2c1-c1cccc(F)c1 [Example 55, 3-(3-fluorophenyl)-2-methyl-4-(morpholin-4-yl)-1H-pyrrolo[2,3-b]pyridine]
EC50: 101 nM

Structure (SMILES): Cc1[nH]c2nccc(N3CCOCC3)c2c1-c1cc(F)cc(C#N)c1 [Example 56, 3-fluoro-5-[2-methyl-4-(morpholin-4-yl)-1H-pyrrolo[2,3-b]pyridin-3-yl]benzonitrile]
EC50: 174 nM

Structure (SMILES): C[C@H]1CN(c2ccnc3[nH]cc(-c4cnn(C)c4)c23)CCO1 [Example 58, 4-[(2S)-2-methylmorpholin-4-yl]-3-(1-methyl-1H-pyrazol-4-yl)-1H-pyrrolo[2,3-b]pyridine]
EC50: 169 nM

Structure (SMILES): Cn1cc(-c2c[nH]c3nccc(N4CCCC(F)(F)C4)c23)cn1 [Example 59, 4-(3,3-difluoropiperidin-1-yl)-3-(1-methyl-1H-pyrazol-4-yl)-1H-pyrrolo[2,3-b]pyridine]
EC50: 197 nM

Structure (SMILES): Cn1cc(-c2c[nH]c3nccc(N4CCCC(CO)C4)c23)cn1 (stereo not drawn) [Example 60, {1-[3-(1-methyl-1H-pyrazol-4-yl)-1H-pyrrolo[2,3-b]pyridin-4-yl]piperidin-3-yl}methanol]
EC50: 140 nM

Structure (SMILES): Cn1cc(-c2c[nH]c3nccc(N4C[C@H]5CC[C@@H](C4)O5)c23)cn1 [Example 61, 3-(1-methyl-1H-pyrazol-4-yl)-4-(8-oxa-3-azabicyclo[3.2.1]oct-3-yl)-1H-pyrrolo[2,3-b]pyridine]
EC50: 221 nM

Structure (SMILES): CN(C)c1ccnc2[nH]cc(-c3cnn(C)c3)c12 [Example 62, N,N-dimethyl-3-(1-methyl-1H-pyrazol-4-yl)-1H-pyrrolo[2,3-b]pyridin-4-amine]
EC50: 185 nM

Structure (SMILES): Cn1cc(-c2c[nH]c3nccc(N4CCSCC4)c23)cn1 [Example 63, 3-(1-methyl-1H-pyrazol-4-yl)-4-(thiomorpholin-4-yl)-1H-pyrrolo[2,3-b]pyridine]
EC50: 71.9 nM

Structure (SMILES): Cn1cc(-c2c[nH]c3nccc(N4CCC(F)(F)C4)c23)cn1 [Example 64, 4-(3,3-difluoropyrrolidin-1-yl)-3-(1-methyl-1H-pyrazol-4-yl)-1H-pyrrolo[2,3-b]pyridine]
EC50: 195 nM

Structure (SMILES): c1cc(N2CCOCC2)c2c(-c3cn[nH]c3)c[nH]c2n1 [Example 68, 4-(morpholin-4-yl)-3-(1H-pyrazol-4-yl)-1H-pyrrolo[2,3-b]pyridine]
EC50: 30.5 nM

Structure (SMILES): N#Cc1cccc(-c2c[nH]c3nccc(N4C[C@H]5C[C@@H](C4)O5)c23)c1 [Example 72, 3-[4-(6-oxa-3-azabicyclo[3.1.1]hept-3-yl)-1H-pyrrolo[2,3-b]pyridin-3-yl]benzonitrile]
EC50: 68.3 nM

Continued, values first:

EC50: 217 nM
Structure (SMILES): N#Cc1ccc(-c2c[nH]c3nccc(N4CCOCC4)c23)c(F)c1 [Example 48, 3-fluoro-4-[4-(morpholin-4-yl)-1H-pyrrolo[2,3-b]pyridin-3-yl]benzonitrile]

EC50: 91.9 nM
Structure (SMILES): Cn1cc(-c2c[nH]c3nccc(N4CCCC(O)C4)c23)cn1 (stereo not drawn) [Example 57, 1-[3-(1-methyl-1H-pyrazol-4-yl)-1H-pyrrolo[2,3-b]pyridin-4-yl]piperidin-3-ol]

EC50: 7.17 nM
Structure (SMILES): N#Cc1cccc(-c2c[nH]c3nccc(C4=CCOCC4)c23)c1 [Example 65, 3-[4-(3,6-dihydro-2H-pyran-4-yl)-1H-pyrrolo[2,3-b]pyridin-3-yl]benzonitrile]

EC50: 24.3 nM
Structure (SMILES): N#Cc1cccc(-c2c[nH]c3nccc(N4CCCC(O)C4)c23)c1 (stereo not drawn) [Example 66, 3-[4-(3-hydroxypiperidin-1-yl)-1H-pyrrolo[2,3-b]pyridin-3-yl]benzonitrile]

EC50: 22 nM
Structure (SMILES): COCC1CN(c2ccnc3[nH]cc(-c4cccc(C#N)c4)c23)CCO1 (stereo not drawn) [Example 67, 3-{4-[2-(methoxymethyl)morpholin-4-yl]-1H-pyrrolo[2,3-b]pyridin-3-yl}benzonitrile]

EC50: 150 nM
Structure (SMILES): N#Cc1cccc(-c2c[nH]c3nccc(N4CCCOCC4)c23)c1 [Example 69, 3-[4-(1,4-oxazepan-4-yl)-1H-pyrrolo[2,3-b]pyridin-3-yl]benzonitrile]

EC50: 85.3 nM
Structure (SMILES): N#Cc1cccc(-c2c[nH]c3nccc(N4CCC(O)CC4)c23)c1 [Example 70, 3-[4-(4-hydroxypiperidin-1-yl)-1H-pyrrolo[2,3-b]pyridin-3-yl]benzonitrile]

EC50: 95.8 nM
Structure (SMILES): COC1CCCN(c2ccnc3[nH]cc(-c4cccc(C#N)c4)c23)C1 (stereo not drawn) [Example 71, 3-[4-(3-methoxypiperidin-1-yl)-1H-pyrrolo[2,3-b]pyridin-3-yl]benzonitrile]

EC50: 44.4 nM
Structure (SMILES): N#Cc1cccc(-c2c[nH]c3nccc(N4C[C@@H](F)[C@H](F)C4)c23)c1 [Example 73, 3-{4-[(3R,4R)-3,4-difluoropyrrolidin-1-yl]-1H-pyrrolo[2,3-b]pyridin-3-yl}benzonitrile]

EC50: 39 nM
Structure (SMILES): N#Cc1cccc(-c2c[nH]c3nccc(N4CCC(F)CC4)c23)c1 [Example 74, 3-[4-(4-fluoropiperidin-1-yl)-1H-pyrrolo[2,3-b]pyridin-3-yl]benzonitrile]

EC50: 38.7 nM
Structure (SMILES): N#Cc1cccc(-c2c[nH]c3nccc(N4CC[C@@H](F)C4)c23)c1 [Example 75, 3-{4-[(3R)-3-fluoropyrrolidin-1-yl]-1H-pyrrolo[2,3-b]pyridin-3-yl}benzonitrile]

EC50: 30.6 nM
Structure (SMILES): C[C@@H]1CN(c2ccnc3[nH]cc(-c4cccc(C#N)c4)c23)CCO1 [Example 76, 3-{4-[(2R)-2-methylmorpholin-4-yl]-1H-pyrrolo[2,3-b]pyridin-3-yl}benzonitrile]

EC50: 14.1 nM
Structure (SMILES): N#Cc1cccc(-c2c[nH]c3nccc(N4CCCC4)c23)c1 [Example 77, 3-[4-(pyrrolidin-1-yl)-1H-pyrrolo[2,3-b]pyridin-3-yl]benzonitrile]

EC50: 24 nM
Structure (SMILES): N#Cc1cccc(-c2c[nH]c3nccc(N4CC[C@H](F)C4)c23)c1 [Example 78, 3-{4-[(3S)-3-fluoropyrrolidin-1-yl]-1H-pyrrolo[2,3-b]pyridin-3-yl}benzonitrile]

EC50: 99.2 nM
Structure (SMILES): N#Cc1cccc(-c2c[nH]c3nccc(N4CCCC(F)(F)C4)c23)c1 [Example 79, 3-[4-(3,3-difluoropiperidin-1-yl)-1H-pyrrolo[2,3-b]pyridin-3-yl]benzonitrile]

EC50: 10.5 nM
Structure (SMILES): C[C@H]1CN(c2ccnc3[nH]cc(-c4cccc(C#N)c4)c23)CCO1 [Example 80, 3-{4-[(2S)-2-methylmorpholin-4-yl]-1H-pyrrolo[2,3-b]pyridin-3-yl}benzonitrile]
